Data on twelve molecules can be found in ChEMBL document CHEMBL1201862, “PubChem BioAssay data set” (2004).

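Cultured in 96-well plates, cells were exposed to test compound for 48 hours across five concentrations. The concentration for 50% growth inhibition is given as GI50.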 Activity calls are given as the source filed them. Cut-off read from the data, not from the text of the source: active = GI50 up to about 1.1 µM and inactive = higher.

Among the test systems are A498; CAKI-1; CCRF-CEM; COLO 205; DMS-114; HOP-18; HT-29; K562; MOLT-4; NCI-H522; OVCAR-4; RPMI-8226; SF-295; SK-MEL-28; SNB-19; SNB-75; SR; MDA-MB-435; PC-3; T47D.
Assay in all cases: DTP human tumour cell line panel, 48 h

In the case of `Nc1nnc(N)n1NC(=O)C(=O)Nc1ccc([N+](=O)[O-])cc1`, the GI50 in the assay with A498, in the assay on CAKI-1, in the assay on CCRF-CEM, with COLO 205, in the assay on DMS-114 and in the assay with HOP-18 was > 100 µM (inactive) in each case. The GI50 – broadly, the concentration that inhibits growth by half – in the assay with HT-29 is > 100 µM (inactive); in the assay with K562, 98.9 µM (inactive); in the assay with MOLT-4 it was > 100 µM (inactive); in the assay with NCI-H522, > 100 µM (inactive); in the assay on OVCAR-4, > 100 µM (inactive); in the assay on RPMI-8226 it was > 100 µM (inactive). Also, the GI50 in the assay on SF-295, in the assay on SK-MEL-28, with SNB-19, with SNB-75 and with SR was > 100 µM (inactive) in each case.

Turning to `CC1C[C@]2(C[C@@H](C)C(=O)O2)OC2CC3(C)C4CCC5C(C)(C)OC(=O)CC[C@@]56C[C@@]46CC[C@]3(C)C12` (some centres not stated), the GI50 in the assay on A498, in the assay on CAKI-1, with CCRF-CEM, in the assay on COLO 205, with DMS-114 and in the assay on HOP-18 was > 100 µM (inactive) throughout. Moreover, the GI50 is > 100 µM (inactive) in the assay with HT-29; 64.9 µM (inactive) in the assay on K562; > 100 µM (inactive) with MOLT-4; > 100 µM (inactive) in the assay on OVCAR-4; > 100 µM (inactive) in the assay with RPMI-8226; > 100 µM (inactive) in the assay with SF-295. The GI50 in the assay with SK-MEL-28, in the assay on SNB-19, in the assay with SNB-75 and in the assay with SR was > 100 µM (inactive) each time.

In the case of `Nc1nn(CC(O)CO)c(=O)s1` (configuration not stated), the GI50 with A498, in the assay on CCRF-CEM, with COLO 205, in the assay on DMS-114, in the assay on HOP-18 and in the assay with HT-29 was > 100 µM (inactive) each time. The GI50 is > 100 µM (inactive) with K562; > 100 µM (inactive) in the assay on MOLT-4; > 100 µM (inactive) with OVCAR-4; > 100 µM (inactive) with RPMI-8226; > 100 µM (inactive) in the assay with SF-295; 7.69 µM (inactive) in the assay on SK-MEL-28. Also, the GI50 with SNB-19 was > 100 µM (inactive); in the assay on SNB-75, 64.6 µM (inactive); in the assay on SR it was > 100 µM (inactive).

Turning to `NC(=O)C1(c2ccccc2)Nc2ccccc2S1` (configuration not stated), the GI50 in the assay on CAKI-1, in the assay with CCRF-CEM, with COLO 205, in the assay with DMS-114, in the assay with HOP-18 and in the assay with HT-29 was > 100 µM (inactive) each time. The GI50 in the assay with K562 was > 100 µM (inactive); with MOLT-4 it was > 100 µM (inactive); in the assay with NCI-H522, > 100 µM (inactive); in the assay with OVCAR-4 it was > 10 µM (inactive); in the assay on RPMI-8226, > 100 µM (inactive); in the assay on SK-MEL-28 it was > 100 µM (inactive). For the same molecule, the GI50 with SNB-19 and in the assay with SR was > 100 µM (inactive) in each case.

On to `Cc1c(N=NN(C)C)cc[n+]([O-])c1C`, for which the GI50 in the assay with A498, with CAKI-1, with CCRF-CEM, with COLO 205, in the assay on DMS-114 and with HOP-18 was > 100 µM (inactive) each time. Further, the GI50 in the assay with HT-29, with K562, with MOLT-4, with NCI-H522, in the assay on OVCAR-4 and with RPMI-8226 was > 100 µM (inactive) each time. Besides, the GI50 in the assay with SF-295 is > 100 µM (inactive); with SK-MEL-28, > 100 µM (inactive); with SNB-19 it was > 100 µM (inactive); with SNB-75, > 49.7 µM (inactive).

`O=c1cnn(C2OC(CO)C(O)C2O)c(=S)[nH]1` (configuration not stated): the GI50 with A498 is > 100 µM (inactive); in the assay with CAKI-1, 2.55 µM (inactive); in the assay on CCRF-CEM it was 2.52 µM (inactive); with COLO 205 it was 54.1 µM (inactive); in the assay on DMS-114, 29.6 µM (inactive); in the assay on HOP-18 it was > 79.1 µM (inactive). The GI50 with HT-29 was 13.5 µM (inactive); in the assay on K562, 0.589 µM (active); in the assay with MDA-MB-435, > 100 µM (inactive); in the assay with MOLT-4 it was 0.938 µM (active); in the assay with NCI-H522, 16.4 µM (inactive); with OVCAR-4 it was > 100 µM (inactive). For the same molecule, the GI50 with PC-3 was 8.73 µM (inactive); in the assay on RPMI-8226, 0.993 µM (active); with SF-295, 11.9 µM (inactive); with SK-MEL-28, > 100 µM (inactive); with SNB-19, 43.1 µM (inactive); in the assay on SNB-75 it was > 100 µM (inactive). For the same molecule, the GI50 with SR is 1.02 µM (active); in the assay on T47D it was > 100 µM (inactive).

For the molecule `CCCCOP1(=O)C=CC(Cl)=C(C)C1` (configuration not stated), the GI50 with CAKI-1 is 68.7 µM (inactive); with CCRF-CEM, 4.11 µM (inactive); with COLO 205, 33 µM (inactive); in the assay with DMS-114, 25.1 µM (inactive); in the assay on HOP-18, 44.5 µM (inactive); with HT-29, 22 µM (inactive). For the same molecule, the GI50 in the assay with K562 is 3.28 µM (inactive); in the assay on MOLT-4, 3.83 µM (inactive); in the assay on NCI-H522 it was > 10 µM (inactive); with OVCAR-4, 25.2 µM (inactive); with RPMI-8226, 22.3 µM (inactive); in the assay with SF-295, 18.2 µM (inactive). In addition, the GI50 is 16.3 µM (inactive) with SK-MEL-28, 51.9 µM (inactive) with SNB-19, 23.3 µM (inactive) with SNB-75 and 15.3 µM (inactive) with SR.

Consider `COc1cc(C2c3cc4c(cc3[C@@H](Nc3cccc(C(C)=O)c3)C3COC(=O)[C@H]23)OCO4)cc(OC)c1O` (some centres not stated), for which the GI50 with A498 was 0.236 µM (active); in the assay on CAKI-1 it was 0.108 µM (active); in the assay with CCRF-CEM, 0.0349 µM (active); in the assay on COLO 205, 1.86 µM (inactive); in the assay on DMS-114, 0.505 µM (active); in the assay on HOP-18, 1 µM (active). Moreover, the GI50 in the assay on HT-29 was 1.1 µM (active); in the assay with K562, 0.536 µM (active); with MOLT-4 it was < 0.01 µM (active); in the assay with NCI-H522, 1.39 µM (inactive); with OVCAR-4, 6.17 µM (inactive); with RPMI-8226, 0.197 µM (active). The GI50 was 0.126 µM (active) in the assay with SF-295, 3.01 µM (inactive) with SK-MEL-28, 0.236 µM (active) with SNB-19 and 0.838 µM (active) in the assay with SNB-75.

Consider `CCCNC(/C=C/[Si](C)(C)C)CO.CCCNCC(O)/C=C/[Si](C)(C)C` (configuration not stated), for which the GI50 is > 100 µM (inactive) in the assay on A498; > 100 µM (inactive) with CCRF-CEM; 98.2 µM (inactive) in the assay on COLO 205; > 100 µM (inactive) in the assay with DMS-114; > 100 µM (inactive) with HOP-18; > 100 µM (inactive) in the assay on HT-29. The GI50 in the assay on K562 is > 100 µM (inactive); with MOLT-4, 10 µM (inactive); with NCI-H522, > 100 µM (inactive); with RPMI-8226, 90.8 µM (inactive); in the assay with SF-295, > 100 µM (inactive); with SK-MEL-28, > 100 µM (inactive). The GI50 in the assay on SNB-19 is > 100 µM (inactive); with SNB-75, 40.6 µM (inactive); in the assay on SR, > 100 µM (inactive).

`CN(C(=O)c1ccc(OCCCC(=O)O)c(Cl)c1Cl)C1CCCC1`: the GI50 in the assay on A498 was > 89.5 µM (inactive); in the assay on CAKI-1 it was > 28.6 µM (inactive); in the assay on CCRF-CEM, > 100 µM (inactive); with COLO 205, > 100 µM (inactive); with DMS-114 it was 69.5 µM (inactive); with HOP-18, > 73.1 µM (inactive). Moreover, the GI50 is > 100 µM (inactive) with HT-29; > 100 µM (inactive) in the assay with K562; > 100 µM (inactive) in the assay on MOLT-4; 42.6 µM (inactive) in the assay on NCI-H522; > 100 µM (inactive) in the assay with OVCAR-4; 98.6 µM (inactive) with RPMI-8226. For the same molecule, the GI50 was > 72.6 µM (inactive) with SF-295, > 100 µM (inactive) in the assay on SK-MEL-28, > 100 µM (inactive) in the assay with SNB-19 and 80.4 µM (inactive) in the assay with SNB-75.

On to `COc1ccc(Sc2ccccc2N)cc1`, for which the GI50 in the assay on A498 is > 100 µM (inactive); in the assay with CCRF-CEM, 14.4 µM (inactive); in the assay on COLO 205 it was 17 µM (inactive); in the assay with DMS-114, 29.8 µM (inactive); in the assay with HOP-18, > 100 µM (inactive); in the assay on HT-29 it was 23.3 µM (inactive). Besides, the GI50 with K562 was 41.6 µM (inactive); in the assay with MOLT-4, 26.9 µM (inactive); in the assay with OVCAR-4, 34.8 µM (inactive); with RPMI-8226 it was 45.9 µM (inactive); with SF-295 it was 39.3 µM (inactive); with SK-MEL-28, 43.4 µM (inactive). In addition, the GI50 in the assay on SNB-19 was > 100 µM (inactive); in the assay on SNB-75 it was 19.6 µM (inactive); with SR it was 22.8 µM (inactive).

`C/C([O-])=C(/c1nc(-c2ccc([N+](=O)[O-])o2)no1)[n+]1cc(C)ccc1C`: the GI50 is 18.3 µM (inactive) in the assay on A498; 14.3 µM (inactive) in the assay on CAKI-1; 1.53 µM (inactive) with CCRF-CEM; 6.08 µM (inactive) in the assay with COLO 205; 16.3 µM (inactive) in the assay with DMS-114; 10.2 µM (inactive) with HOP-18. The GI50 was 9.79 µM (inactive) with HT-29; 0.692 µM (active) with K562; > 100 µM (inactive) in the assay with MOLT-4; 3.57 µM (inactive) in the assay on NCI-H522; 25.1 µM (inactive) in the assay with OVCAR-4; 15.3 µM (inactive) with RPMI-8226. Besides, the GI50 with SF-295 was 11.7 µM (inactive); in the assay with SK-MEL-28, 12.7 µM (inactive); in the assay with SNB-19, 26.7 µM (inactive); with SNB-75 it was 17.8 µM (inactive).
